We go through 1 compound from patent US7417124B2, “Antibodies specific for phosphorylation sites and screening methods using the same antibodies” (Zeria Pharmaceutical Co., Ltd., priority 2003, dated 2008).

This assay concerns phosphorylation in the linker regions of Smad proteins. Nature of the assay: Smad linker region phosphorylation in TGF-β-treated myofibroblasts, immunoprecipitation and immunoblotting with phosphorylation-specific antibodies. Type of assay: cell-based. Conditions: myofibroblasts from rat liver, compounds 30 minutes before 200 pM TGF-β, FIG. 3. In general terms: In western blotting, separated proteins are transferred to a membrane and probed.

Method: The phosphorylation of Smad2 and Smad3 was examined by western blotting using antibodies against Smad2 and Smad3 which were site-specifically phosphorylated after the immunoprecipitation with anti-Smad2 antibody and anti-Smad3 antibody.
Myofibroblasts (MFB 2×10^6 cells/100 mm dish) from rat liver were cultured in DMEM medium (containing 5% fetal bovine serum) for several days and further cultured with 200 pM TGF-β (R&D Systems) for 30 minutes under the serum-free conditions. The cells were homogenized with RIPA buffer (10 mM Tris-HCl, pH 7.8/1% NP40/0.15M NaCl/1 mM EDTA/10 μg/ml aprotinin), and the resultant lysate was centrifuged at 15,000×g. The supernatant was incubated with Smad-specific antibodies and protein G-sepharose (Amersham Bioscience) to obtain immunoprecipitate. After the incubation, part of the precipitate was subjected to SDS-polyacrylamide gel electrophoresis, the obtained gel was transferred onto a PVDF membrane, and immunoblotting was performed using the antibodies specific for phosphorylation of the linker regions and C-terminal regions in Smad2 and Smad3. The detection was carried out by a chemiluminescence technique using HRP-labeled secondary antibody/anti-IgG, IgH antibody (Amersham Bioscience). […] The detected bands were quantified using an imaging analyzer.

Turning to `C[S+]([O-])c1ccc(-c2nc(-c3ccncc3)c(-c3ccc(F)cc3)[nH]2)cc1` (stereo not shown) [SB203580], the “phosphorylation in the linker regions of Smad proteins” value is listed as “inhibited”.
